These results are taken from the NIST ThermoML archive (doi:10.1016/j.fluid.2018.02.015).

For series [1] the following is noted: 99.9 kPa, Liquid, Vibrating tube method.
A short description of series [2]: refractive index (Na D-line) (dimensionless). To be noted: 99.9 kPa, Liquid, Standard Abbe refractometry.

Numbers after ± are expanded uncertainties.

In the case of `CCCCCCCCCC` [decane], the mass density – broadly, the mass of a sample divided by its volume – in series [1] (293.15 K) is 729.762 ± 0.33 kg/m3; in series [1] (294.15 K), 728.496 ± 0.29 kg/m3; in series [1] (295.15 K), 727.738 ± 0.26 kg/m3; in series [1] (296.15 K), 726.983 ± 0.26 kg/m3; in series [1] (297.15 K) it was 726.227 ± 0.26 kg/m3; in series [1] (298.15 K) it was 725.467 ± 0.26 kg/m3. Also, the mass density in series [1] (299.62 K) was 724.355 ± 0.26 kg/m3. For the same molecule, the figures for the refractive index in series [2] (293.15 K) and in series [2] (298.15 K) were 1.41196 ± 0.0005 and 1.40964 ± 0.0005, respectively.

For the molecule `CCCCCCCCC` [nonane], the mass density in series [1] (293.15 K) amounted to 717.883 ± 0.33 kg/m3; in series [1] (294.15 K), 716.601 ± 0.29 kg/m3; in series [1] (295.15 K) it was 715.824 ± 0.26 kg/m3; in series [1] (296.15 K), 715.045 ± 0.26 kg/m3; in series [1] (297.15 K) it was 714.268 ± 0.25 kg/m3; in series [1] (298.15 K), 713.689 ± 0.24 kg/m3. For the same molecule, the results for the refractive index in series [2] (293.15 K) and in series [2] (298.15 K) were 1.40595 ± 0.00049 and 1.40329 ± 0.00049, respectively.

For the molecule `CCCCCCCCCCC` [undecane], the mass density in series [1] (293.15 K) was determined as 739.96 ± 0.29 kg/m3; in series [1] (295.15 K), 737.96 ± 0.27 kg/m3; in series [1] (297.15 K), 736.48 ± 0.25 kg/m3; in series [1] (298.15 K), 735.73 ± 0.25 kg/m3; in series [1] (299.75 K), 734.56 ± 0.25 kg/m3. The refractive index (usually the speed of light in vacuum divided by its phase velocity in the sample) in series [2] (293.15 K) amounted to 1.41726 ± 0.00049; in series [2] (298.15 K), 1.41502 ± 0.00049.
